As usually defined, the MIC is the lowest concentration found to suppress growth. What is called IC50 is the concentration that inhibits the measured activity by half. For orientation: CC50 means the concentration that lowers cell viability or growth by half. As usually defined, the half-life is the time in which the quantity being followed falls by half. Usually solubility stands for the dissolved amount per volume that the medium holds.

The test system of series [1] is Mycobacterium tuberculosis. Briefly: Antimycobacterial activity against Mycobacterium tuberculosis H37Rv assessed as reduction in bacterial growth. The format is functional.
For series [2], the system named is Staphylococcus aureus. As to the kind of experiment: Antibacterial activity against methicillin-resistant Staphylococcus aureus assessed as reduction in bacterial growth. The format is functional.
The subject of series [3] is Staphylococcus aureus. Briefly: Antibacterial activity against methicillin/ceftriaxone/meropenem/vancomycin/teicoplanin resistant Staphylococcus aureus VRS 12 assessed as reduction in bacterial growth incubated for 18 to 24 hrs by broth dilution method. The format is functional. As to conditions: time 18-24 hrs. A general note: Dilution methods test growth across graded concentrations, often in twofold steps.

The subject of series [4] is Staphylococcus aureus. Briefly: Antibacterial activity against methicillin/ceftriaxone/meropenem/vancomycin/teicoplanin resistant Staphylococcus aureus VRS 4 assessed as reduction in bacterial growth incubated for 18 to 24 hrs by broth dilution method. The format is functional. The note with it: time 18-24 hrs.
In series [5] the test system is Staphylococcus aureus. As to the kind of experiment: Antibacterial activity against methicillin/ceftriaxone/meropenem/gentamycin/vancomycin/teicoplanin resistant Staphylococcus aureus VRS 1 assessed as reduction in bacterial growth incubated for 18 to 24 hrs by broth dilution method. The format is functional. As to conditions: time 18-24 hrs.
A further series has as its target DNA gyrase (Escherichia coli, UniProt P0AES4+P0AES6). As to the kind of experiment: Inhibition of Escherichia coli DNA gyrase. Format: protein-complex assay.
Series [6] concerns Mycobacterium tuberculosis. As to the kind of experiment: Antimycobacterial activity against Mycobacterium tuberculosis H37Rv ATCC 27294 assessed as inhibition of bacterial growth incubated for 18 to 24 hrs by broth dilution method. The format is functional.
Series [7] in a line: Selectivity index, ratio of CC50 for cytotoxicity against African green monkey Vero cells assessed as reduction in cell viability to MIC for antibacterial activity against Mycobacterium tuberculosis H37Rv ATCC 27294 assessed as inhibition of bacterial growth. The format is toxicity, cell-based. As to conditions: read-out: Selectivity Index.
The test system of series [8] is Mycolicibacterium fortuitum. As to the kind of experiment: Antimycobacterial activity against Mycobacterium fortuitum assessed as reduction in bacterial growth incubated for 18 to 24 hrs by broth dilution method. Format: functional. As to conditions: time 18-24 hrs.
A further series relates to Mycobacteroides chelonae. Briefly: Antibacterial activity against Mycobacteroides chelonae assessed as reduction in bacterial growth incubated for 18 to 24 hrs by broth dilution method. Format: functional. As to conditions: time 18-24 hrs.
Series [9] deals with Staphylococcus aureus. Briefly: Antibacterial activity against Staphylococcus aureus ATCC 29213 assessed as inhibition of bacterial growth measured for 18 to 24 hrs by broth dilution method. The format is functional. The note with it: time 18-24 hrs.
Series [10] can be described thus: Cytotoxicity against African green monkey Vero cells assessed as reduction in cell viability incubated for 72 hrs by MTT assay. Format: toxicity, cell-based. As to conditions: chlorocebus sabaeus. A general note: Tetrazolium assays rely on reduction of a dye to a coloured formazan, in cell work by metabolically active cells.
Series [11] has as its system Mycobacterium tuberculosis. As to the kind of experiment: Antimycobacterial activity against Mycobacterium tuberculosis assessed as reduction in bacterial growth. Format: functional.
The test system of series [12] is Staphylococcus aureus. Briefly: Antibacterial activity against methicillin-susceptible Staphylococcus aureus assessed as reduction in bacterial growth incubated for 18 to 24 hrs by broth dilution method. Format: functional. The note with it: time 18-24 hrs.
Series [13] relates to Staphylococcus aureus. Briefly: Antibacterial activity against methicillin/ceftriaxone/meropenem resistant Staphylococcus aureus NRS 129 assessed as reduction in bacterial growth incubated for 18 to 24 hrs by broth dilution method. The note with it: time 18-24 hrs. The format is functional.
A short description of series [14]: Metabolic stability in human liver microsome assessed as elimination rate constant at 1 uM preincubated for 5 mins followed by NADPH addition and measured after 60 mins by LC-MS/MS analysis. Format: ADME. As to conditions: liver microsomes, time 65 min.
In series [15] the test system is Staphylococcus aureus. As to the kind of experiment: Antibacterial activity against methicillin/ceftriaxone/meropenem resistant Staphylococcus aureus NRS 193 assessed as reduction in bacterial growth incubated for 18 to 24 hrs by broth dilution method. The format is functional. As to conditions: time 18-24 hrs.
Series [16] deals with DNA gyrase (Escherichia coli) (UniProt P0AES6+P0AES4). As to the kind of experiment: Inhibition of Escherichia coli DNA gyrase supercoiling activity assessed as reduction in linear DNA formation at 8 times MIC incubated for 90 mins. Format: protein-complex assay.
The nature of series [17]: Metabolic stability in human liver microsome assessed as half life at 1 uM preincubated for 5 mins followed by NADPH addition and measured after 60 mins by LC-MS/MS analysis. Format: ADME. As to conditions: liver microsomes, time 65 min. For orientation: Liver microsomes are vesicles of endoplasmic reticulum, rich in cytochrome P450 enzymes.
The nature of series [18]: Aqueous solubility of compound in phosphate buffer at pH 7.4 incubated for 16 hrs by HPLC analysis. Format: physicochemical.
Series [19] has as its system Staphylococcus aureus. Briefly: Antibacterial activity against methicillin/ceftriaxone/meropenem resistant Staphylococcus aureus NRS 186 assessed as reduction in bacterial growth incubated for 18 to 24 hrs by broth dilution method. The format is functional. The note with it: time 18-24 hrs.
The test system of series [20] is Staphylococcus aureus. Briefly: Bacteriostatic activity against Staphylococcus aureus ATCC 29213 at 4 to 8 times MIC incubated for 2 to 24 hrs by time kill assay. The format is functional, organism-based. The note with it: time 2-24 hrs.
For series [21], the system named is Staphylococcus aureus. As to the kind of experiment: Antibacterial activity against methicillin/ceftriaxone/meropenem/gentamycin/linezolid resistant Staphylococcus aureus NRS 119 assessed as reduction in bacterial growth incubated for 18 to 24 hrs by broth dilution method. The format is functional. The note with it: time 18-24 hrs.
Series [22] deals with Staphylococcus aureus. Briefly: Antibacterial activity against methicillin/ceftriaxone/meropenem resistant Staphylococcus aureus NRS 198 assessed as reduction in bacterial growth incubated for 18 to 24 hrs by broth dilution method. As to conditions: time 18-24 hrs. Format: functional.
Series [23] deals with Staphylococcus aureus. As to the kind of experiment: Antibacterial activity against methicillin/ceftriaxone/meropenem resistant Staphylococcus aureus NRS 192 assessed as reduction in bacterial growth incubated for 18 to 24 hrs by broth dilution method. Format: functional. The note with it: time 18-24 hrs.
For series [24], the system named is Staphylococcus aureus. Briefly: Antibacterial activity against methicillin/ceftriaxone/meropenem resistant Staphylococcus aureus NRS 191 assessed as reduction in bacterial growth incubated for 18 to 24 hrs by broth dilution method. Format: functional. The note with it: time 18-24 hrs.
Series [25] has as its system Staphylococcus aureus. As to the kind of experiment: Antibacterial activity against methicillin/ceftriaxone resistant Staphylococcus aureus NRS 194 assessed as reduction in bacterial growth incubated for 18 to 24 hrs by broth dilution method. The format is functional. As to conditions: time 18-24 hrs.
Series [26] in a line: Selectivity index, ratio of CC50 for cytotoxicity against African green monkey Vero cells assessed as reduction in cell viability to MIC for antibacterial activity against Staphylococcus aureus ATCC 29213 assessed as inhibition of bacterial growth. Format: toxicity, cell-based. The note with it: read-out: Selectivity Index.
The nature of series [27]: Metabolic stability in human liver microsome assessed as intrinsic clearance at 1 uM preincubated for 5 mins followed by NADPH addition and measured after 60 mins by LC-MS/MS analysis. Format: ADME. The note with it: liver microsomes, time 65 min, read-out: CLH.
Series [28] deals with Staphylococcus aureus. Briefly: Antibacterial activity against methicillin/ceftriaxone/meropenem/gentamycin/linezolid resistant Staphylococcus aureus NRS 100 assessed as reduction in bacterial growth incubated for 18 to 24 hrs by broth dilution method. The format is functional. As to conditions: time 18-24 hrs.

Molecules are shown by their SMILES. ≈ marks a conversion by molar mass, not a printed value. Calls of active or inactive are those of the source. No cut-off for these calls is given here. A value given as a limit tells only on which side of the number the result lay.

As to `O=C(Nc1ccc(-n2ccc(-c3cc4ccccc4o3)n2)cc1)c1cc([N+](=O)[O-])cc([N+](=O)[O-])c1`, the MIC in series [1] was found to be 0.03 µg/mL (≈ 0.0639 µM).

Turning to `S=C(Nc1ccc(Cl)cc1)n1ccc(OCc2ccccc2)n1`, the MIC in the series with Staphylococcus aureus [2] was determined as 0.15 µM (≈ 0.0516 µg/mL).

As to `CN[C@H](CC(C)C)C(=O)N[C@H]1C(=O)N[C@@H](CC(N)=O)C(=O)N[C@H]2C(=O)N[C@H]3C(=O)N[C@H](C(=O)N[C@H](C(=O)O)c4cc(O)cc(O)c4-c4cc3ccc4O)[C@H](O)c3ccc(c(Cl)c3)Oc3cc2cc(c3O[C@@H]2O[C@H](CO)[C@@H](O)[C@H](O)[C@H]2O[C@H]2C[C@](C)(N)[C@H](O)[C@H](C)O2)Oc2ccc(cc2Cl)[C@H]1O` [VANCOMYCIN], the MIC in the series on Staphylococcus aureus [3], in the series on Staphylococcus aureus [4] and with Staphylococcus aureus [5] was above 64 µg/mL throughout.

`COc1ccc(Nc2n[nH]c(/N=C/c3ccc(N4CCCCC4)cc3)c2C(N)=O)cc1`: the IC50 on DNA gyrase came out at 7.69 mM.

Take `COc1cc(-c2ccn(-c3ccc(NC(=O)NCc4ccccc4)cc3)n2)cc(OC)c1OC`: the MIC in series [6] was 0.5 µg/mL (≈ 1.09 µM); in series [8], 0.5 µg/mL (≈ 1.09 µM); with Mycobacteroides chelonae, 1 µg/mL (≈ 2.18 µM); in the series on Staphylococcus aureus [9], above 64 µg/mL. In [7], the selectivity ratio was below 10. Besides, the CC50 at 72 h in [10] was below 5 µg/mL.

Regarding `COC(=O)c1cc(-c2cccc(NC(=O)Nc3ccc(Cl)c(Cl)c3)c2)on1`, the MIC in [1] was found to be 0.25 µg/mL (≈ 0.615 µM).

Consider `Cc1c(C(=O)NN2CCCCC2)nn(-c2ccc(Cl)cc2Cl)c1-c1ccc(Cl)cc1` [RIMONABANT], for which the MIC in series [11] was 25 µg/mL (≈ 53.9 µM).

For the compound `COc1ccc(-c2ccn(-c3ccc(NC(=O)Nc4ccc(Cl)c(Cl)c4)cc3)n2)cc1OC`, the MIC came to 32 µg/mL (≈ 66.2 µM) in series [6]; 0.25 µg/mL (≈ 0.517 µM) in the series with Staphylococcus aureus [3]; 0.25 µg/mL (≈ 0.517 µM) in the series with Staphylococcus aureus [12]; 0.25 µg/mL (≈ 0.517 µM) in the series on Staphylococcus aureus [13]; 0.25 µg/mL (≈ 0.517 µM) with Staphylococcus aureus [15]; 0.25 µg/mL (≈ 0.517 µM) in the series on Staphylococcus aureus [4]. Moreover, the MIC in the series with Staphylococcus aureus [19], in the series on Staphylococcus aureus [21], in the series on Staphylococcus aureus [5], with Staphylococcus aureus [22], in the series with Staphylococcus aureus [23] and in the series on Staphylococcus aureus [24] was 0.25 µg/mL (≈ 0.517 µM) throughout. Also, the MIC in the series with Staphylococcus aureus [25], in the series on Staphylococcus aureus [9] and in the series with Staphylococcus aureus [28] was 0.25 µg/mL (≈ 0.517 µM) each time. In addition, in [14], the k el at 1 h, 1 µM is 0.0001 s⁻¹. Also, the inhibition result in series [16] was “Active”. The half-life at 1 µM in series [17] turned out to be 1.8 h. This compound also returned a solubility at 16 h in series [18] of 5 µg/mL (≈ 10.3 µM). In addition, the result in the series on Staphylococcus aureus [20] was Active. Besides, the selectivity ratio in series [26] turned out to be 40. Also, in series [27], the microsomal CLint at 1 µM was found to be 12.4 µL/min/mg. The CC50 at 72 h in [10] was 10 µg/mL (≈ 20.7 µM).

(Values after ChEMBL document CHEMBL5329155, “Synthesis and pharmacological evaluation of 1,3-diaryl substituted pyrazole based (thio)urea derivatives as potent antimicrobial agents against multi-drug resistant Staphylococcus aureus and Mycobacterium tuberculosis” (RSC Med Chem, 2023).)
